Where “and” joins values, the source holds several entries; their conditions need not be identical. Equal values may be shown once.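 Assay format: 96-well plates, 48-hour exposure. GI50: concentration for 50% inhibition of growth. TGI denotes the concentration required for complete inhibition of growth.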
What was measured:
Assay in all cases: NCI tumour cell line growth inhibition, 48 h
[1] = test system: HOP-18 NSCLC
[2] = test system: DLD-1 colon
[3] = test system: HS 578T breast
[4] = test system: HCC-2998 colon
[5] = test system: SNB-78 CNS
[6] = test system: SF-539 CNS
[7] = test system: SK-MEL-2 melanoma
[8] = test system: OVCAR-4 ovarian
[9] = test system: M14 melanoma
[10] = test system: MDA-MB-231 breast
[11] = test system: OVCAR-8 ovarian
[12] = test system: KM20L2 colon
[13] = test system: HL-60(TB) leukemia
[14] = test system: P388 leukemia
[15] = test system: DMS 114 small cell lung
[16] = test system: DMS 273 small cell lung
[17] = test system: MDA-N
[18] = test system: SN12K1 renal
[19] = test system: MDA-MB-435
[20] = test system: K-562 leukemia
[21] = test system: NCI-H23 lung
[22] = test system: SNB-75 CNS
[23] = test system: HCT-116 colon
[24] = test system: ACHN renal
[25] = test system: PC-3 prostate
[26] = test system: MOLT-4 leukemia
[27] = test system: SF-295 CNS
[28] = test system: HOP-62 NSCLC
[29] = test system: M19-MEL melanoma
[30] = test system: XF 498 CNS
[31] = test system: MCF7 breast
[32] = test system: A549 NSCLC
[33] = test system: HT29 colon
[34] = test system: NCI-H226 lung
[35] = test system: RPMI-8226 leukemia
[36] = test system: CCRF-CEM leukemia
[37] = test system: TK-10 renal
[38] = test system: COLO 205 colon
[39] = test system: CAKI-1 renal
[40] = test system: HOP-92 NSCLC
[41] = test system: NCI/ADR-RES ovarian
[42] = test system: EKVX NSCLC
[43] = test system: SF-268 CNS
[44] = test system: P388/ADR leukemia
[45] = test system: RXF 393 renal
[46] = test system: HCT-15 colon
[47] = test system: UO-31 renal
[48] = test system: NCI-H522 lung
[49] = test system: OVCAR-5 ovarian
[50] = test system: NCI-H460 lung
[51] = test system: KM12 colon
[52] = test system: SW-620 colon
[53] = test system: T-47D breast
[54] = test system: LOX IMVI melanoma
[55] = test system: IGROV1 ovarian
[56] = test system: OVCAR-3 ovarian
[57] = test system: U251 CNS
[58] = test system: UACC-62 melanoma
[59] = test system: UACC-257 melanoma
[60] = test system: 786-0 renal
[61] = test system: SR leukemia
[62] = test system: SK-OV-3 ovarian
[63] = test system: SK-MEL-5 melanoma
[64] = test system: SNB-19 CNS
[65] = test system: SN12C renal
[66] = test system: MALME-3M melanoma
[67] = test system: BT-549 breast
[68] = test system: DU-145 prostate
[69] = test system: SK-MEL-28 melanoma

With `CO[C@H]1C[C@@H]2CC[C@@H](C)[C@@](O)(O2)C(=O)C(=O)N2CCCC[C@H]2C(=O)O[C@H]([C@H](C)C[C@@H]2CC[C@@H](O)[C@H](OC)C2)CC(=O)[C@H](C)C=C(C)[C@@H](O)[C@@H](OC)C(=O)[C@H](C)C[C@H](C)/C=C/C=C/C=C1C` the TGI [1] was 133 µM, the TGI [2] was 25.2 µM and the TGI [3] was 13.7 µM and 86.4 µM. The TGI [4] was 13.8 µM and 26.6 µM and 47.9 µM, the TGI [5] was 16.9 µM and the TGI [6] was 14.6 µM and 22.4 µM and 82.9 µM. The TGI [7] was 17.6 µM and 34.9 µM and 67.2 µM, the TGI [8] was 6.85 µM and 27 µM and the TGI [9] was 27.2 µM and 144 µM. For the same molecule, the TGI [10] was 26.3 µM and 170 µM, the TGI [11] was 27.7 µM and 62 µM and 243 µM and the TGI [12] was 41.5 µM. The TGI [13] was 24.2 µM and 144 µM, the TGI [14] was 27.8 µM and the TGI [15] was 31.5 µM. For the same molecule, the TGI [16] was 33.7 µM, the GI50 [17] was 79.1 µM and the TGI [18] was 20.9 µM. For the same molecule, the TGI [19] was 25.9 µM and 126 µM and the TGI [20] was 40.5 µM and 365 µM.
With `O=C1C=C2C(=CCOC2O)O1` (stereo not drawn) the TGI [1] was 4.77 µM, the TGI [2] was 2.07 µM and the GI50 [21] was 2.73 µM. For the same molecule, the TGI [21] was 4.14 µM and 10.6 µM, the GI50 [22] was 2.82 µM and the TGI [22] was 10.1 µM and 13.2 µM. For the same molecule, the GI50 [23] was 1.14 µM, the TGI [23] was 0.544 µM and 2.4 µM and the GI50 [24] was 1.28 µM. The TGI [24] was 3.34 µM, the GI50 [25] was 4.69 µM and the TGI [25] was 17.1 µM. It also gave a GI50 [3] of 2.14 µM, a TGI [3] of 9.84 µM and a GI50 [4] of 11.4 µM. The GI50 [26] was 3.66 µM, the TGI [26] was 1.61 µM and 10.7 µM and the TGI [5] was 11.6 µM. For the same molecule, the GI50 [27] was 3.34 µM and 6.25 µM, the TGI [27] was 8.88 µM and 22.4 µM and the TGI [28] was 20.5 µM and 23.4 µM. For the same molecule, the GI50 [6] was 0.941 µM and 1.77 µM, the TGI [6] was 2.13 µM and 4.57 µM and the TGI [29] was 8.14 µM. The TGI [30] was 0.419 µM, the TGI [7] was 13.6 µM and the TGI [31] was 17.3 µM and 13.7 µM. For the same molecule, the GI50 [32] was 5.51 µM, the TGI [32] was 21.2 µM and 22.2 µM and the GI50 [33] was 6.05 µM and 1.16 µM. For the same molecule, the TGI [33] was 22.7 µM and 3.37 µM, the TGI [34] was 6.92 µM and the GI50 [35] was 3.6 µM. For the same molecule, the GI50 [36] was 1.11 µM, the TGI [36] was 0.709 µM and 6.03 µM and the GI50 [37] was 0.259 µM. The TGI [37] was 0.652 µM, the GI50 [38] was 0.395 µM and 0.655 µM and the TGI [38] was 1.04 µM and 1.97 µM. The TGI [8] was 12.5 µM, the GI50 [9] was 1.59 µM and the TGI [9] was 3.08 µM. For the same molecule, the GI50 [39] was 1.06 µM and 1 µM, the TGI [39] was 2.3 µM and 2.5 µM and the GI50 [40] was 2.64 µM. The TGI [40] was 6.11 µM and 7.84 µM, the GI50 [41] was 2.76 µM and the TGI [41] was 4.35 µM and 12.5 µM. For the same molecule, the GI50 [42] was 1.76 µM and 10.6 µM, the TGI [42] was 4.64 µM and 40.4 µM and the GI50 [10] was 1.96 µM. The TGI [10] was 5.07 µM, the GI50 [43] was 1.1 µM and 3.66 µM and the TGI [43] was 8.18 µM and 13.9 µM. The TGI [44] was 0.569 µM, the GI50 [45] was 0.213 µM and 1.1 µM and the TGI [45] was 0.761 µM and 3 µM. For the same molecule, the GI50 [11] was 0.734 µM and 2.57 µM, the TGI [11] was 5.07 µM and 9.22 µM and the GI50 [46] was 1.25 µM. For the same molecule, the TGI [46] was 1.98 µM and 3.23 µM, the GI50 [47] was 3.98 µM and 1.24 µM and the TGI [47] was 8.77 µM and 6.43 µM. For the same molecule, the GI50 [48] was 1.12 µM, the TGI [48] was 1.07 µM and 2.52 µM and the TGI [12] was 12.1 µM. For the same molecule, the GI50 [49] was 2.97 µM, the TGI [49] was 15.8 µM and 7.74 µM and the TGI [14] was 0.439 µM. The GI50 [50] was 3.86 µM, the TGI [50] was 2.41 µM and 18.3 µM and the GI50 [51] was 0.783 µM and 3.08 µM. The TGI [51] was 1.85 µM and 11.2 µM, the TGI [15] was 3.29 µM and the GI50 [52] was 0.395 µM and 0.443 µM. The TGI [52] was 1.23 µM and 1.88 µM, the TGI [16] was 2.41 µM and the GI50 [53] was 1.4 µM. For the same molecule, the TGI [53] was 4.64 µM, the GI50 [54] was 0.227 µM and 1.57 µM and the TGI [54] was 0.665 µM and 3.33 µM. The GI50 [55] was 2.59 µM, the TGI [55] was 9.78 µM and 6.24 µM and the GI50 [56] was 1.7 µM and 0.664 µM. For the same molecule, the TGI [56] was 4.06 µM and 2.19 µM, the GI50 [57] was 6.92 µM and 2.65 µM and the TGI [57] was 14.6 µM and 10 µM. For the same molecule, the GI50 [58] was 1.55 µM, the TGI [58] was 1.64 µM and 3.2 µM and the TGI [59] was 3.85 µM. It also gave a GI50 [60] of 2.67 µM, a TGI [60] of 7.06 µM and a GI50 [61] of 2.11 µM. The TGI [61] was 8.51 µM, the GI50 [62] was 11.5 µM and 12.2 µM and the TGI [62] was 20.6 µM and 24.6 µM. For the same molecule, the GI50 [63] was 2.43 µM, the TGI [63] was 3.17 µM and 9.05 µM and the GI50 [19] was 1.64 µM. For the same molecule, the TGI [19] was 3.86 µM, the GI50 [20] was 0.905 µM and 1.79 µM and the TGI [20] was 3.22 µM and 10.7 µM. The GI50 [64] was 3.23 µM and 12.8 µM, the TGI [64] was 9.77 µM and 27.8 µM and the GI50 [65] was 2.59 µM. For the same molecule, the TGI [65] was 1.86 µM and 10 µM, the TGI [66] was 2.04 µM and the GI50 [67] was 3.28 µM. The TGI [67] was 9.67 µM, the GI50 [68] was 2.07 µM and the TGI [68] was 6.48 µM. The GI50 [69] was 1.28 µM and 2.37 µM and the TGI [69] was 3.38 µM and 5.83 µM.
